pEC50: −log10 of the molar value. *1 amine or outer side, *2 acyl side, *3 side chain or, on linkers, in order; H or OH if unused. Where a SMILES comes first, the peptide text is derived from it. Side-chain parts run from the residue outwards. [ ]: non-standard residue; d: D form. The star is where a group is joined. C18 diacid = O=C(O)CCCCCCCCCCCCCCCCC(=O)*; γGlu = O=C(O)[C@H](CCC(=O)[*:2])N[*:1]; Ac4c = NC1(C(=O)O)CCC1; AEEA = NCCOCCOCC(=O)O
Columns and labels:
[1] = target: T1, human glucagon-like peptide 1 receptor (GLP-1R) (Homo sapiens, UniProt P43220); assay: GLP-1 receptor efficacy assay (cAMP AlphaScreen, CHO cells); type: cell-based; settings: for Ratio GLP-1/Glucagon: EC50 [GLP-1R] / EC50 [Glucagon-R], human receptors in CHO-K1; for pEC50: cAMP formation, CHO cells expressing human GLP-1-R, 15 min, read-out: EC50 hGLP-1R CHO-K1
T1 construct: expressed in transfected cells
Text: (§1) The cDNA encoding either the human glucagon receptor (Glucagon-R) (primary accession number P47871) or the human glucagon-like peptide 1 receptor (GLP-1R) (primary accession number P43220) were synthesized and cloned into a mammalian expression vector containing a Zeocin resistance marker.
(§2) The mammalian expression vectors encoding the Glucagon-R or the GLP-1-R were transfected into Chinese hamster ovary (CHO) cells by the Attractene method. Stably expressing clones were obtained by Zeocin selection (250 μg/mL) upon limited dilution of cells resistant to the selection pressure. Glucagon-R and GLP-1-R cell clones expressing were picked, propagated and tested in the Glucagon-R and GLP-1-R efficacy assays as described below. One Glucagon-R expressing clone and one GLP-1-R expressing clone were chosen for compound profiling.
(§3) CHO cells expressing the human Glucagon-R, or human GLP-1-R were seeded 24 hours prior to the assay at 30,000 cells per well in 96-well microtiter plates in culture in 100 μl growth medium. On the day of analysis, growth medium was removed and the cells were washed once with 200 μl of assay buffer (Krebs-Ringer-buffer—KRBH). The buffer was removed and the cells were incubated for 15 min at room temperature in 10 μl KRBH (KRBH+10 mM HEPES, 5 mM NaHCO3, 0.1% (V/V) BSA) with 0.1 mM IBMX in deionized water containing increasing concentrations of test peptides. The reaction was stopped by the addition of lysis buffer (0.1% w/v BSA, 5 mM HEPES, 0.3% v/v Tween-20). After cell lysis for 10 min at room temperature, lysates were transferred to 384-well plates and 10 μl of acceptor/donorbead mixture as contained in the AlphaScreen™ cAMP Functional Assay Kit was added. After one hour of incubation at room temperature in the dark, the cAMP content was determined applying the AlphaScreen™ cAMP Functional Assay Kit from Perkin-Elmer according to manufacturer instructions. EC50 and relative efficacies compared to reference compounds (glucagon and GLP-1) were calculated applying computer aided curve fitting. The GLP-1/glucagon ratio is calculated as defined earlier.

[2] = Pharmacokinetic parameters after intravenous administration to rats; settings: male, Han/Wistar, rat, in vivo, 20 nmol/kg
Experimental: Pharmacokinetic parameters of the test compounds were determined after intravenous administration to Han/Wistar rats. The acylated GLP-1 analogue semaglutide was also tested for comparison purposes. Male Wistar rats were obtained from Charles River (Germany) weighing approximately 180 to 210 g at time of arrival at the test facility. Rats were caged in European standard rat cages type IV with light cycle of 12-hour dark and 12-hour light. During the study rats were housed in standard rat cages type III. Both diet Altromin 1324 (Altromin, Germany) and water was administered ad libitum during the whole experimental period. The animals were housed in the test facility for at least 4 days in order to assure proper acclimatization. The compounds were first dissolved in 0.1% aqueous ammonia to a nominal concentration of 2 mg/ml, and then diluted to the desired dosing strength (10 μM) in sterile PBS containing 25 mM phosphate buffer, pH 7.4. Intravenous injections corresponding to 20 nmol/kg were given via a lateral tail vein. Blood samples (200 μl) were collected from the periorbital plexus at time points 0.08, 0.25, 0.5, 1, 2, 4, 8, 24, 32 and 48 h post dosing into K3EDTA tubes and centrifuged for 5 minutes at 4° C. within 20 minutes of sampling. […] Individual plasma concentration-time profiles were analysed by a non-compartmental approach using ToxKin™ version 3.2 (Unilog IT Services), and the resulting pharmacokinetic parameters were determined.

[3] = target: T2, human glucagon receptor (Glucagon-R) (Homo sapiens, UniProt P47871); assay: Glucagon receptor efficacy assay (cAMP AlphaScreen, CHO cells); type: cell-based; settings: cAMP formation, CHO cells expressing human Glucagon-R, 15 min; read-out: EC50 hGCGR CHO-K1
T2 construct: expressed in transfected cells
Text: as §1, §2, §3

T1 sequence (P43220 24-463): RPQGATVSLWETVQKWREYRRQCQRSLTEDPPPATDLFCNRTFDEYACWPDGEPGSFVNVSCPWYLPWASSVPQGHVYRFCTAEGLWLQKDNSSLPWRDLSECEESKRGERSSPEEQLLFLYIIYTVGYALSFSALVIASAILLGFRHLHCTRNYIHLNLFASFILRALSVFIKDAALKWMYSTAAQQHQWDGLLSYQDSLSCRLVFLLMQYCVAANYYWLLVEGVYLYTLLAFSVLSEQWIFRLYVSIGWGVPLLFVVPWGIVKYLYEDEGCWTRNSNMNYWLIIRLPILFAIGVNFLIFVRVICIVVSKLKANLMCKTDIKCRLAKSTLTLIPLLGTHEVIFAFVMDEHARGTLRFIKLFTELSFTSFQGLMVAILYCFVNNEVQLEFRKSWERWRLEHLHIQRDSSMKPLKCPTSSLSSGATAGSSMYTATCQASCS
T2 sequence (P47871 26-477): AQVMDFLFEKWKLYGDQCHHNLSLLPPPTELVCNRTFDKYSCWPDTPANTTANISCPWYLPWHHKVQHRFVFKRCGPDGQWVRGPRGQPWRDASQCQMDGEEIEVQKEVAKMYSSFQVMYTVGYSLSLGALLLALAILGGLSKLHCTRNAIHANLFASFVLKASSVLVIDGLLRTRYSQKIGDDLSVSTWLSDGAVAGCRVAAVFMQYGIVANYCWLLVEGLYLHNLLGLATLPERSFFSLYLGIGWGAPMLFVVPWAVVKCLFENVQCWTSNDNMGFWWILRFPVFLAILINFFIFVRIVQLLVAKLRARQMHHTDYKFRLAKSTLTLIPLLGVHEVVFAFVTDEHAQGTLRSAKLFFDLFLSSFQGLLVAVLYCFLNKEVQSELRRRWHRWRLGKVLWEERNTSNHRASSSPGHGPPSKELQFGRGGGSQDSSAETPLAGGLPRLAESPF

| Ratio GLP-1/Glucagon [1] | pEC50 [1] | MRT [2] | clearance [2] | half-life [2] | pEC50 [3] | Structure (SMILES) |
| --- | --- | --- | --- | --- | --- | --- |
| 0.47 | 9.15 | 28.7 h | 3.36 mL/h/kg | 23.4 h |  | CC[C@H](C)[C@H](NC(=O)[C@H](Cc1ccccc1)NC(=O)[C@H](CC(=O)O)NC(=O)[C@H](CCCCN)NC(=O)[C@H](C)NC(=O)[C@H](C)NC(=O)[C@H](CCCNC(=N)N)NC(=O)[C@H](CCC(=O)O)NC(=O)[C@H](CC(=O)O)NC(=O)[C@H](CC(C)C)NC(=O)[C@H](Cc1ccc(O)cc1)NC(=O)[C@H](CCCCN)NC(=O)[C@H](CO)NC(=O)[C@H](Cc1ccc(O)cc1)NC(=O)[C@H](CC(=O)O)NC(=O)[C@H](CO)NC(=O)[C@@H](NC(=O)[C@H](Cc1ccccc1)NC(=O)[C@@H](NC(=O)CNC(=O)[C@H](CCC(N)=O)NC(=O)C(C)(C)NC(=O)[C@@H](N)Cc1c[nH]cn1)[C@@H](C)O)[C@@H](C)O)C(=O)N[C@@H](CCCCNC(=O)CNC(=O)CNC(=O)[C@H](CO)NC(=O)CNC(=O)[C@H](CO)NC(=O)CNC(=O)CC[C@H](NC(=O)CCCCCCCCCCCCCCCCC(=O)O)C(=O)O)C(=O)N[C@@H](Cc1c[nH]c2ccccc12)C(=O)N[C@@H](CC(C)C)C(=O)N[C@@H](CCC(=O)O)C(=O)N[C@@H](CO)C(=O)N[C@@H](C)C(N)=O [Compound 3] |
| 1.56 | 9.15 | 17.6 h | 6.6 mL/h/kg | 13.7 h |  | CC[C@H](C)[C@H](NC(=O)[C@H](Cc1ccccc1)NC(=O)[C@H](CC(=O)O)NC(=O)[C@H](CCCCN)NC(=O)[C@H](C)NC(=O)[C@H](CCCNC(=N)N)NC(=O)[C@H](CCCCNC(=O)COCCOCCNC(=O)COCCOCCNC(=O)CC[C@H](NC(=O)CCCCCCCCCCCCCCCCC(=O)O)C(=O)O)NC(=O)[C@H](CCC(=O)O)NC(=O)[C@H](CC(=O)O)NC(=O)[C@H](CC(C)C)NC(=O)[C@H](Cc1ccc(O)cc1)NC(=O)[C@H](CCCCN)NC(=O)[C@H](CO)NC(=O)[C@H](Cc1ccc(O)cc1)NC(=O)[C@H](CC(=O)O)NC(=O)[C@H](CO)NC(=O)[C@@H](NC(=O)[C@H](Cc1ccccc1)NC(=O)[C@@H](NC(=O)CNC(=O)[C@H](CCC(N)=O)NC(=O)C1(NC(=O)[C@@H](N)Cc2c[nH]cn2)CCC1)[C@@H](C)O)[C@@H](C)O)C(=O)N[C@@H](CCC(=O)O)C(=O)N[C@@H](Cc1c[nH]c2ccccc12)C(=O)N[C@@H](CC(C)C)C(=O)N[C@@H](CCC(=O)O)C(=O)N[C@@H](CO)C(=O)N[C@@H](C)C(N)=O [Compound 4, H-H-Ac4c-QGTFTSDYSKYLDE-K([17-carboxy-heptadecanoyl]-isoGlu-Peg3-Peg3)-RAKDFIEWLESA-NH2] (H-H[Ac4c]QGTFTSDYSKYLDEK([AEEA-AEEA-γGlu-C18 diacid])RAKDFIEWLESA-NH2) |
| 4.61 |  |  |  |  | 9.74 | CC[C@H](C)[C@H](NC(=O)[C@H](Cc1ccccc1)NC(=O)[C@H](CC(=O)O)NC(=O)[C@H](CCCCN)NC(=O)[C@H](C)NC(=O)[C@H](C)NC(=O)[C@H](CCCNC(=N)N)NC(=O)[C@H](CCCCNC(=O)CNC(=O)CNC(=O)[C@H](CO)NC(=O)CNC(=O)[C@H](CO)NC(=O)CNC(=O)CC[C@H](NC(=O)CCCCCCCCCCCCCCCCC(=O)O)C(=O)O)NC(=O)[C@H](CC(=O)O)NC(=O)[C@H](CC(C)C)NC(=O)[C@H](Cc1ccc(O)cc1)NC(=O)[C@H](CCCCN)NC(=O)[C@H](CO)NC(=O)[C@H](Cc1ccc(O)cc1)NC(=O)[C@H](CC(=O)O)NC(=O)[C@H](CO)NC(=O)[C@@H](NC(=O)[C@H](Cc1ccccc1)NC(=O)[C@@H](NC(=O)CNC(=O)[C@H](CCC(N)=O)NC(=O)C(C)(C)NC(=O)[C@@H](N)Cc1c[nH]cn1)[C@@H](C)O)[C@@H](C)O)C(=O)N[C@@H](CCC(=O)O)C(=O)N[C@@H](Cc1c[nH]c2ccccc12)C(=O)N[C@@H](CC(C)C)C(=O)N[C@@H](CCC(=O)O)C(=O)N[C@@H](CO)C(=O)N[C@@H](C)C(N)=O [Compound 5, H-H-Aib-QGTFTSDYSKYLD-K([17-carboxy-heptadecanoyl]-isoGlu-GSGSGG)-RAAKDFIEWLESA-NH2] |
| 6.86 |  |  |  |  | 10.15 | CC[C@H](C)[C@H](NC(=O)[C@H](Cc1ccccc1)NC(=O)[C@H](CC(=O)O)NC(=O)[C@H](CCCCN)NC(=O)[C@H](C)NC(=O)[C@H](CCCNC(=N)N)NC(=O)[C@H](CCCCNC(=O)CC[C@H](NC(=O)CCCCCCCCCCCCCCCCC(=O)O)C(=O)O)NC(=O)[C@H](CCC(=O)O)NC(=O)[C@H](CC(=O)O)NC(=O)[C@H](CC(C)C)NC(=O)[C@H](Cc1ccc(O)cc1)NC(=O)[C@H](CCCCN)NC(=O)[C@H](CO)NC(=O)[C@H](Cc1ccc(O)cc1)NC(=O)[C@H](CC(=O)O)NC(=O)[C@H](CO)NC(=O)[C@@H](NC(=O)[C@H](Cc1ccccc1)NC(=O)[C@@H](NC(=O)CNC(=O)[C@H](CCC(N)=O)NC(=O)C1(NC(=O)[C@@H](N)Cc2c[nH]cn2)CCC1)[C@@H](C)O)[C@@H](C)O)C(=O)N[C@@H](CCC(=O)O)C(=O)N[C@@H](Cc1c[nH]c2ccccc12)C(=O)N[C@@H](CC(C)C)C(=O)N[C@@H](CCC(=O)O)C(=O)N[C@@H](CO)C(=O)N[C@@H](C)C(N)=O [Compound 12, H-H-Ac4c-QGTFTSDYSKYLDE-K([17-carboxy-heptadecanoyl]-isoGlu)-RAKDFIEWLESA-NH2] (H-H[Ac4c]QGTFTSDYSKYLDEK([γGlu-C18 diacid])RAKDFIEWLESA-NH2) |
